Results taken from article PMC6934184, “Selective DNA-PKcs inhibition extends the therapeutic index of localized radiotherapy and chemotherapy” (The Journal of Clinical Investigation, 2019).

Target: T1, ALK (Homo sapiens, UniProt Q9UM73)
T1 construct: purchased Thermo Fisher Scientific (Life Technologies) SelectScreen
Assay: SelectScreen Z'LYTE
Type: biochemical
How it was run: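 Percent values come from Thermo SelectScreen profiling of NU5455, combining activity and binding assays. CSF1R was run in Z'LYTE format at Km app ATP, and CAMK1 in Adapta format with ATP listed at 10.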

T1 sequence (Q9UM73 19-1620): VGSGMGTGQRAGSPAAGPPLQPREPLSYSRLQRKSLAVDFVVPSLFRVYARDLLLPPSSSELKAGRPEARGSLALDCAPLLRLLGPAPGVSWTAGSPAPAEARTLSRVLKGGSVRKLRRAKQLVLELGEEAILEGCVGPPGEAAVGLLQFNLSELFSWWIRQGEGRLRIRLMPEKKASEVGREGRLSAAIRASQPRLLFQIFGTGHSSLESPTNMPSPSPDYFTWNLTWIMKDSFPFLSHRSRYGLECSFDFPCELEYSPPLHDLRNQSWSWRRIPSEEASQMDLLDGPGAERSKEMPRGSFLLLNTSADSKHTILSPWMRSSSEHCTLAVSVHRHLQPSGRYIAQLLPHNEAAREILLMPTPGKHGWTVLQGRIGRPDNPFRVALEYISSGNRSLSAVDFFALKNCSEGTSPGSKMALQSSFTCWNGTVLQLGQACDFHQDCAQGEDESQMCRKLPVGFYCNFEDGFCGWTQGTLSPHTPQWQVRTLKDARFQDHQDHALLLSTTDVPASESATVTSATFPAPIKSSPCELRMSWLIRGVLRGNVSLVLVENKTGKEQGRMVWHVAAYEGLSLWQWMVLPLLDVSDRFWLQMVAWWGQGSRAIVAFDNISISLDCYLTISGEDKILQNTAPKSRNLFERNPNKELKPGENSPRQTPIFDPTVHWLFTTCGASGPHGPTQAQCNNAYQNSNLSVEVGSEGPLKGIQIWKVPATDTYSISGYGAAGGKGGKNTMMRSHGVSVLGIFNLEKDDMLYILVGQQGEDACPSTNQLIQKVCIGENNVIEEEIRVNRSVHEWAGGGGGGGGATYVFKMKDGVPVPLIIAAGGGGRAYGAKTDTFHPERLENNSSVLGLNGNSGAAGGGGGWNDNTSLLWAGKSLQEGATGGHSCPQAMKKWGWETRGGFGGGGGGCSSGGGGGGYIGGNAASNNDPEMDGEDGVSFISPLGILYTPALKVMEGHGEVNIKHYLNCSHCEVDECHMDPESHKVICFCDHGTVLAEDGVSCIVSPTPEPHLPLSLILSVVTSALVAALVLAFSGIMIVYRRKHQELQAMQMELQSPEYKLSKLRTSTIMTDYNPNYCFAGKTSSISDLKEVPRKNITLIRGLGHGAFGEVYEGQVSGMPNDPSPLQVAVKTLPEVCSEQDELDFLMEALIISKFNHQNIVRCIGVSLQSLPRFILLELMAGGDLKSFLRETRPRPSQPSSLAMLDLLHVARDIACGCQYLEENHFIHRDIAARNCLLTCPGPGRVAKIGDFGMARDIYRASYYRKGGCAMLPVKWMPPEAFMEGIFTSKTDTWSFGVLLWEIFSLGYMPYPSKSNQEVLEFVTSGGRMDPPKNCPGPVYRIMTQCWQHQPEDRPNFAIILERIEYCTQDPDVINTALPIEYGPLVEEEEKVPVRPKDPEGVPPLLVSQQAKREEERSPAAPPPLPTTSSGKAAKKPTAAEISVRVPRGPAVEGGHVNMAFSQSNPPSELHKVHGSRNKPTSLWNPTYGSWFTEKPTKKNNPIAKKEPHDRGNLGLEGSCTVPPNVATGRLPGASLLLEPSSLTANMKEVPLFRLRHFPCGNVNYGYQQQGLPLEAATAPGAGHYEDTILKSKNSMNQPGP

Structure (SMILES): CN(C(=O)CN1CCOCC1)c1ccc2sc3c(-c4cccc5c(=O)cc(N6CC7CCC(C6)O7)oc45)cccc3c2c1 [NU5455]
- inhibition at 1 µM: 17.3%
